This test relates to P388 leukemia ip, CD2F1 mice, survival T/C. The test can be described thus: NCI In Vivo Anticancer Drug Screen. Data for tumor model P388 Leukemia (intraperitoneal) in CD2F1 (CDF1) mice. As to conditions: endpoint: median survival time, higher = longer survival. The gist of the method: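 Mice carrying the transplanted tumor received test compound or vehicle. Survival was recorded in each group, and the value is the treated-group measurement divided by that of the vehicle-treated control group.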

Setting [1] is: dose: 50.0 mg/kg/injection, schedule: Q01DX009 (ip), vehicle: saline with Tween-80.
Setting [2] is: dose: 100.0 mg/kg/injection, schedule: Q01DX009 (ip), vehicle: saline with Tween-80.
[3] abbreviates: dose: 200.0 mg/kg/injection, schedule: Q01DX009 (ip), vehicle: saline with Tween-80.
Setting [4] is: dose: 6.25 mg/kg/injection, schedule: Q01DX009 (ip), vehicle: Klucel (hydroxypropylcellulose) (HPC).
Setting [5] is: dose: 12.5 mg/kg/injection, schedule: Q01DX009 (ip), vehicle: Klucel (hydroxypropylcellulose) (HPC).
[6] abbreviates: dose: 12.5 mg/kg/injection, schedule: Q01DX009 (ip), vehicle: saline with Tween-80.
Setting [7] is: dose: 50.0 mg/kg/injection, schedule: Q01DX009 (ip), vehicle: Klucel (hydroxypropylcellulose) (HPC).
The mark [8] stands for this setting: dose: 50.0 mg/kg/injection, schedule: Q01DX005 (ip), vehicle: saline with Tween-80.
Where [9] appears, read: dose: 100.0 mg/kg/injection, schedule: Q01DX005 (ip), vehicle: saline with Tween-80.
Setting [10] is: dose: 200.0 mg/kg/injection, schedule: Q01DX005 (ip), vehicle: saline with Tween-80.
Setting [11] is: dose: 60.0 mg/kg/injection, schedule: Q01DX005 (ip), vehicle: Klucel (hydroxypropylcellulose) (HPC).
Setting [12] is: dose: 120.0 mg/kg/injection, schedule: Q01DX005 (ip), vehicle: Klucel (hydroxypropylcellulose) (HPC).
Where [13] appears, read: dose: 240.0 mg/kg/injection, schedule: Q01DX005 (ip), vehicle: Klucel (hydroxypropylcellulose) (HPC).

Where “and” joins values, the source holds several entries; their conditions need not be identical. Equal entries are not always repeated. Toxic doses and inconclusive results are not listed.

In the case of `CCN1C(=O)C(=NO)C(=O)N(CC)C1=S.CCN1C(=O)C(=N[O-])C(=O)N(CC)C1=S.CCN1C(=O)C(=N[O-])C(=O)N(CC)C1=S.[Fe+3]`, the T/C (dose: 100.0 mg/kg/injection, schedule: Q04DX002 (ip), vehicle: saline with Tween-80) was 94 % of control and the T/C (dose: 200.0 mg/kg/injection, schedule: Q04DX002 (ip), vehicle: saline with Tween-80) is 102 % of control.
Turning to `COc1cc2cc(c1Cl)N(C)C(=O)CC(OC(=O)C(C)N(C)C(=O)C(C)C)C1(C)OC1C(C)C1CC(O)(NC(=O)O1)C(OC)/C=C/C=C(C)C2` (stereo unspecified), the T/C is 105 % of control (dose: 0.1 micrograms/kg/injection, schedule: Q01DX009 (ip), vehicle: saline); 115 % of control (dose: 0.2 micrograms/kg/injection, schedule: Q01DX009 (ip), vehicle: saline); 157 % of control (dose: 3.1 micrograms/kg/injection, schedule: Q01DX009 (ip), vehicle: saline + alcohol); 150 % of control (dose: 3.1 micrograms/kg/injection, schedule: Q01DX009 (ip), vehicle: saline); 167 % of control (dose: 6.3 micrograms/kg/injection, schedule: Q01DX009 (ip), vehicle: saline + alcohol); 161 % of control (dose: 6.3 micrograms/kg/injection, schedule: Q01DX009 (ip), vehicle: saline). Further, the T/C (dose: 12.5 micrograms/kg/injection, schedule: Q01DX009 (ip), vehicle: saline + alcohol) was 150 % of control.
Turning to `C(C#Cc1ccccc1)#Cc1ccccc1`, the T/C runs as follows: (dose: 25.0 mg/kg/injection, schedule: Q01DX009 (ip), vehicle: saline with Tween-80) 98 % of control; under setting [1], 99 % of control; under setting [2], 96 % of control; under setting [3], 98 % of control.
Regarding `Cc1ccc(S(=O)(=O)N/N=C/C(=O)O)cc1`, the T/C is, setting by setting: under setting [4], 110 % of control and 119 % of control; (dose: 6.25 mg/kg/injection, schedule: Q01DX009 (ip), vehicle: other) 106 % of control; (dose: 6.25 mg/kg/injection, schedule: Q01DX009 (ip), vehicle: water) 108 % of control; under setting [5], 114 % of control and 117 % of control and 122 % of control; under setting [6], 121 % of control; under setting [7], 152 % of control. Also, the T/C was 104 % of control and 119 % of control and 117 % of control (dose: 100.0 mg/kg/injection, schedule: Q01DX009 (ip), vehicle: Klucel (hydroxypropylcellulose) (HPC)); 107 % of control under setting [2].
For the compound `COCCCNC1=C(C#N)C(=O)NC(c2cccs2)S1` (stereo unspecified), the T/C runs as follows: under setting [1], 117 % of control; under setting [2], 119 % of control.
As to `CCO/C=C1/N=C(c2cc(OC)cc(OC)c2)OC1=O`, the T/C (dose: 15.0 mg/kg/injection, schedule: Q01DX005 (ip), vehicle: saline with Tween-80) is 104 % of control; the T/C (dose: 30.0 mg/kg/injection, schedule: Q01DX005 (ip), vehicle: saline with Tween-80) is 101 % of control; the T/C (dose: 60.0 mg/kg/injection, schedule: Q01DX005 (ip), vehicle: saline with Tween-80) was 90 % of control and 96 % of control; the T/C (dose: 240.0 mg/kg/injection, schedule: Q01DX005 (ip), vehicle: saline with Tween-80) is 87 % of control.
Consider `c1ccc(CSc2ncnc3n[nH]nc23)cc1`, for which the T/C was 100 % of control (dose: 3.12 mg/kg/injection, schedule: Q01DX009 (ip), vehicle: saline); 106 % of control (dose: 6.25 mg/kg/injection, schedule: Q01DX009 (ip), vehicle: saline); 104 % of control (dose: 12.5 mg/kg/injection, schedule: Q01DX009 (ip), vehicle: saline); 100 % of control (dose: 25.0 mg/kg/injection, schedule: Q01DX009 (ip), vehicle: saline).
With `CC(C)(C)SSC(=S)C1CCCCC1`, the T/C (dose: 25.0 mg/kg/injection, schedule: Q01DX005 (ip), vehicle: saline with Tween-80) is 108 % of control; the T/C under setting [8] was 106 % of control and 116 % of control; the T/C under setting [9] is 108 % of control and 118 % of control; the T/C under setting [10] is 117 % of control.
Regarding `CN(C)C1CS(=O)(=O)OC2=C1CCc1c2ccn1C` (stereo unspecified), the T/C is 96 % of control under setting [11], 98 % of control under setting [12] and 96 % of control under setting [13].
`CCOC(=S)SCC(=O)NC`: the T/C was 98 % of control (dose: 50.0 mg/kg/injection, schedule: Q01DX009 (ip), vehicle: saline); 107 % of control (dose: 100.0 mg/kg/injection, schedule: Q01DX009 (ip), vehicle: saline); 104 % of control (dose: 200.0 mg/kg/injection, schedule: Q01DX009 (ip), vehicle: saline).
As for `CC(=O)OC1CC(c2ccccc2)=NO1` (stereo unspecified), the T/C is, setting by setting: under setting [11], 106 % of control; under setting [12], 95 % of control; under setting [13], 103 % of control.
Regarding `CC1CCC2(NC1)OC1CC3C4CCC5CC(N)CCC5(C)C4CCC3(C)C1C2C` (stereo unspecified), the T/C by setting is: under setting [4], 105 % of control; under setting [5], 95 % of control; (dose: 25.0 mg/kg/injection, schedule: Q01DX009 (ip), vehicle: Klucel (hydroxypropylcellulose) (HPC)) 106 % of control; under setting [7], 110 % of control.
In the case of `CC(CO)(CO)N1C(=O)c2cccc3cc([N+](=O)[O-])cc(c23)C1=O`, the T/C was 114 % of control under setting [8], 105 % of control under setting [9] and 107 % of control under setting [10].
For `CN(C)c1ccc(N(C)C)c(C(O)(c2ccccc2)c2ccccc2)c1`, the T/C under setting [1] is 88 % of control.
For the compound `CCCCc1ccc(-n2c(C)nc3[nH]cc(C)c3c2=N)cc1`, the T/C is, setting by setting: (dose: 50.0 mg/kg/injection, schedule: Q01DX005 (ip), vehicle: Klucel (hydroxypropylcellulose) (HPC)) 96 % of control; (dose: 100.0 mg/kg/injection, schedule: Q01DX005 (ip), vehicle: Klucel (hydroxypropylcellulose) (HPC)) 102 % of control; (dose: 200.0 mg/kg/injection, schedule: Q01DX005 (ip), vehicle: Klucel (hydroxypropylcellulose) (HPC)) 97 % of control.
Consider `COc1cc2c(cc1OC)CN1CSc3cc(OC)c(OC)cc3C1C2` (stereo unspecified), for which the T/C is, setting by setting: (dose: 100.0 mg/kg/injection, schedule: Q01DX001 (ip), vehicle: saline with Tween-80) 92 % of control; (dose: 200.0 mg/kg/injection, schedule: Q01DX001 (ip), vehicle: saline with Tween-80) 92 % of control.
Regarding `CCCCCCCCCCCCOC(=O)c1ccc(I)cc1`, the T/C is, setting by setting: under setting [1], 97 % of control; under setting [2], 97 % of control; under setting [3], 102 % of control.
In the case of `CCOC1(C2(O)CCCCC2)CC(C)=NO1` (stereo unspecified), the T/C runs as follows: (dose: 100.0 mg/kg/injection, schedule: Q04DX002 (ip), vehicle: Klucel (hydroxypropylcellulose) (HPC)) 104 % of control; (dose: 200.0 mg/kg/injection, schedule: Q04DX002 (ip), vehicle: Klucel (hydroxypropylcellulose) (HPC)) 98 % of control; (dose: 400.0 mg/kg/injection, schedule: Q04DX002 (ip), vehicle: Klucel (hydroxypropylcellulose) (HPC)) 102 % of control.
As for `S=C(Nc1ccccc1)SCc1ccc2c(c1)OCO2`, the T/C (dose: 100.0 mg/kg/injection, schedule: Q01DX001 (ip), vehicle: saline) is 98 % of control; the T/C (dose: 200.0 mg/kg/injection, schedule: Q01DX001 (ip), vehicle: saline) was 101 % of control; the T/C (dose: 400.0 mg/kg/injection, schedule: Q01DX001 (ip), vehicle: saline) is 101 % of control.
With `CC/C(=C(/CC)c1ccc(OCC(=O)N/N=C2\CCC3C4CCc5cc(O)ccc5C4=CCC23C)cc1)c1ccc(OCC(=O)N/N=C2/CCC3C4CCc5cc(O)ccc5C4=CCC23C)cc1` (stereo unspecified), the T/C is 96 % of control (dose: 50.0 mg/kg/injection, schedule: Q01DX001 (ip), vehicle: Klucel (hydroxypropylcellulose) (HPC)); 95 % of control (dose: 100.0 mg/kg/injection, schedule: Q01DX001 (ip), vehicle: Klucel (hydroxypropylcellulose) (HPC)); 87 % of control (dose: 200.0 mg/kg/injection, schedule: Q01DX001 (ip), vehicle: Klucel (hydroxypropylcellulose) (HPC)).
On to `c1ccc(-c2nc3ccccc3nc2-c2ccc(-c3nc4ccccc4nc3-c3ccccc3)cc2)cc1`, for which the T/C was 112 % of control (dose: 6.25 mg/kg/injection, schedule: Q01DX009 (ip), vehicle: saline with Tween-80) and 90 % of control under setting [6].

For the origin of these results see PubChem BioAssay AID330 (DTP/NCI, 2004).
